In ChEMBL document CHEMBL3992518, “Peptide Macrocycle Inhibitor of Coagulation Factor XII with Subnanomolar Affinity and High Target Selectivity” (J Med Chem, 2017):
pKi: −log10 of the molar value. *1 amine or outer side, *2 acyl side, *3 side chain or, on linkers, in order; H or OH if unused. Where a SMILES comes first, the peptide text is derived from it. Bridges are numbered along the chain shown (N, C = ends). [ ]: non-standard residue; d: D form. TATA = O=C(CC[*:1])N1CN(C(=O)CC[*:2])CN(C(=O)CC[*:3])C1; tBuAla = CC(C)(C)C[C@H](N)C(=O)O; Nva = CCC[C@H](N)C(=O)O

Target: T1, Coagulation factor XII (Homo sapiens, UniProt P00748)
T1 sequence (P00748 whole entry): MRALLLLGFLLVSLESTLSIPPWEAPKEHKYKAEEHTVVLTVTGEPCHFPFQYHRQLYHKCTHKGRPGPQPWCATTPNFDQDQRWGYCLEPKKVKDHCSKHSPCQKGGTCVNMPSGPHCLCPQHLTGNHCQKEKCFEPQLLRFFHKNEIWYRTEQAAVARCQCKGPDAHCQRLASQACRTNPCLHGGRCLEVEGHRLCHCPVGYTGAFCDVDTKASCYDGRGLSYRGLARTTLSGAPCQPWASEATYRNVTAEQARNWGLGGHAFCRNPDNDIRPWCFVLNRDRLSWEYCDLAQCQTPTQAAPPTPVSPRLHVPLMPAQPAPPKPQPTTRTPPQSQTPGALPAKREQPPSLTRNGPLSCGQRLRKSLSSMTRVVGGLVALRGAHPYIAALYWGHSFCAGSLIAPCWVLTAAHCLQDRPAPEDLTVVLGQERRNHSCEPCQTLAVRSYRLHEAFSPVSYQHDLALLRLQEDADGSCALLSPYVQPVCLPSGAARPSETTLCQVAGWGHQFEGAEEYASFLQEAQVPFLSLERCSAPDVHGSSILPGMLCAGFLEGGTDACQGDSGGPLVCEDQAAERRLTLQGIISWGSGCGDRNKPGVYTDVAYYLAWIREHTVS
Assay: Inhibition of human beta factor 12a using fluorogenic substrate Boc-Gln-Gly-Arg-AMC preincubated for 10 mins followed by addition of substrate measured every min for 30 mins

Row | SMILES | pKi
1 | CC(C)C[C@@H]1NC(=O)[C@H](CC(=O)O)NC(=O)[C@H](CCCNC(=N)N)NC(=O)[C@@H]2CSCCC(=O)N3CN(CN(C3)C(=O)CCSC[C@H](NC(=O)[C@@H](N)CCCNC(=N)N)C(=O)N[C@@H](Cc3ccccc3)C(=O)N[C@@H](CCCNC(=N)N)C(=O)N[C@@H](CC(C)C)C(=O)N3CCC[C@H]3C(=O)N2)C(=O)CCSC[C@@H](C(=O)N[C@@H](CCCNC(=N)N)C(=O)N[C@@H](Cc2c[nH]c3ccccc23)C(=O)O)NC(=O)[C@H](CCCNC(=N)N)NC1=O (H-RCFRLPCRDLRCRW-OH; linker 2-7-12 via TATA) | 6.26
2 | CC(C)C[C@@H]1NC(=O)[C@H](CCC(N)=O)NC(=O)[C@H](CCCNC(=N)N)NC(=O)[C@@H]2CSCCC(=O)N3CN(CN(C3)C(=O)CCSC[C@H](NC(=O)[C@@H](N)CCCNC(=N)N)C(=O)N[C@@H](Cc3ccccc3)C(=O)N[C@@H](CCCCN)C(=O)N[C@@H](CC(C)C)C(=O)N3CCC[C@H]3C(=O)N2)C(=O)CCSC[C@@H](C(=O)N[C@@H](CCCNC(=N)N)C(=O)N[C@@H](Cc2c[nH]c3ccccc23)C(=O)O)NC(=O)[C@H](CCCNC(=N)N)NC1=O (H-RCFKLPCRQLRCRW-OH; linker 2-7-12 via TATA) | 6.95
3 | CC(C)C[C@@H]1NC(=O)[C@H](CCC(N)=O)NC(=O)[C@H](CCCNC(=N)N)NC(=O)[C@@H]2CSCCC(=O)N3CN(CN(C3)C(=O)CCSC[C@H](NC(=O)[C@@H](N)CCCNC(=N)N)C(=O)N[C@@H](C(C)C)C(=O)N[C@@H](CCCNC(=N)N)C(=O)N[C@@H](CC(C)C)C(=O)N3CCC[C@H]3C(=O)N2)C(=O)CCSC[C@@H](C(=O)N[C@@H](CCCNC(=N)N)C(=O)N[C@@H](Cc2c[nH]c3ccccc23)C(=O)O)NC(=O)[C@H](CCCNC(=N)N)NC1=O (H-RCVRLPCRQLRCRW-OH; linker 2-7-12 via TATA) | 6.80
4 | CC(C)C[C@@H]1NC(=O)[C@H](CCC(N)=O)NC(=O)[C@H](CCCNC(=N)N)NC(=O)[C@@H]2CSCCC(=O)N3CN(CN(C3)C(=O)CCSC[C@H](NC(=O)[C@@H](N)C(C)C)C(=O)N[C@@H](Cc3ccccc3)C(=O)N[C@@H](CCCNC(=N)N)C(=O)N[C@@H](CC(C)C)C(=O)N3CCC[C@H]3C(=O)N2)C(=O)CCSC[C@@H](C(=O)N[C@@H](CCCNC(=N)N)C(=O)O)NC(=O)[C@H](CCCNC(=N)N)NC1=O (H-VCFRLPCRQLRCR-OH; linker 2-7-12 via TATA) | 7.00
5 | CC(C)C[C@@H]1NC(=O)[C@H](CCC(N)=O)NC(=O)[C@H](CCCNC(=N)N)NC(=O)[C@@H]2CSCCC(=O)N3CN(CN(C3)C(=O)CCSC[C@H](NC(=O)[C@@H](N)CCCNC(=N)N)C(=O)N[C@@H](Cc3ccccc3)C(=O)N[C@@H](CCCNC(=N)N)C(=O)N[C@@H](CC(C)C)C(=O)N[C@@H](CC(C)C)C(=O)N2)C(=O)CCSC[C@@H](C(=O)N[C@@H](CCCNC(=N)N)C(=O)N[C@@H](Cc2c[nH]c3ccccc23)C(=O)O)NC(=O)[C@H](CCCNC(=N)N)NC1=O (H-RCFRLLCRQLRCRW-OH; linker 2-7-12 via TATA) | 7.89
6 | CC(C)C[C@@H]1NC(=O)[C@H](CCC(N)=O)NC(=O)[C@H](CCCNC(=N)N)NC(=O)[C@@H]2CSCCC(=O)N3CN(CN(C3)C(=O)CCSC[C@H](NC(=O)[C@@H](N)CCCNC(=N)N)C(=O)N[C@@H](Cc3ccc(-c4ccccc4)cc3)C(=O)N[C@@H](CCCNC(=N)N)C(=O)N[C@@H](CC(C)C)C(=O)N3CCC[C@H]3C(=O)N2)C(=O)CCSC[C@@H](C(=O)N[C@@H](CCCNC(=N)N)C(=O)N[C@@H](Cc2c[nH]c3ccccc23)C(=O)O)NC(=O)[C@H](CCCNC(=N)N)NC1=O | < 6.00
7 | CC[C@H](C)[C@@H]1NC(=O)[C@H](CCC(N)=O)NC(=O)[C@H](CCCNC(=N)N)NC(=O)[C@@H]2CSCCC(=O)N3CN(CN(C3)C(=O)CCSC[C@H](NC(=O)[C@@H](N)CCCNC(=N)N)C(=O)N[C@@H](Cc3ccccc3)C(=O)N[C@@H](CCCNC(=N)N)C(=O)N[C@@H](CC(C)C)C(=O)N3CCC[C@H]3C(=O)N2)C(=O)CCSC[C@@H](C(=O)N[C@@H](CCCNC(=N)N)C(=O)N[C@@H](Cc2c[nH]c3ccccc23)C(=O)O)NC(=O)[C@H](CCCNC(=N)N)NC1=O (H-RCFRLPCRQIRCRW-OH; linker 2-7-12 via TATA) | 7.11
8 | CCC[C@@H]1NC(=O)[C@H](CCC(N)=O)NC(=O)[C@H](CCCNC(=N)N)NC(=O)[C@@H]2CSCCC(=O)N3CN(CN(C3)C(=O)CCSC[C@H](NC(=O)[C@@H](N)CCCNC(=N)N)C(=O)N[C@@H](Cc3ccccc3)C(=O)N[C@@H](CCCNC(=N)N)C(=O)N[C@@H](CC(C)C)C(=O)N3CCC[C@H]3C(=O)N2)C(=O)CCSC[C@@H](C(=O)N[C@@H](CCCNC(=N)N)C(=O)N[C@@H](Cc2c[nH]c3ccccc23)C(=O)O)NC(=O)[C@H](CCCNC(=N)N)NC1=O | 7.14
9 | CC(C)C[C@@H]1NC(=O)[C@H](CCC(N)=O)NC(=O)[C@H](CCCNC(=N)N)NC(=O)[C@@H]2CSCCC(=O)N3CN(CN(C3)C(=O)CCSC[C@H](NC(=O)[C@@H](N)CCCNC(=N)N)C(=O)N[C@@H](Cc3ccccc3)C(=O)N[C@@H](CCCNC(=N)N)C(=O)N[C@@H](C)C(=O)N3CCC[C@H]3C(=O)N2)C(=O)CCSC[C@@H](C(=O)N[C@@H](CCCNC(=N)N)C(=O)N[C@@H](Cc2c[nH]c3ccccc23)C(=O)O)NC(=O)[C@H](CCCNC(=N)N)NC1=O (H-RCFRAPCRQLRCRW-OH; linker 2-7-12 via TATA) | < 5.52
10 | CC(C)C[C@@H]1NC(=O)[C@H](CCC(N)=O)NC(=O)[C@H](CCCNC(=N)N)NC(=O)[C@@H]2CSCCC(=O)N3CN(CN(C3)C(=O)CCSC[C@H](NC(=O)[C@@H](N)CCCNC(=N)N)C(=O)N[C@@H](Cc3ccc([N+](=O)[O-])cc3)C(=O)N[C@@H](CCCNC(=N)N)C(=O)N[C@@H](CC(C)C)C(=O)N3CCC[C@H]3C(=O)N2)C(=O)CCSC[C@@H](C(=O)N[C@@H](CCCNC(=N)N)C(=O)N[C@@H](Cc2c[nH]c3ccccc23)C(=O)O)NC(=O)[C@H](CCCNC(=N)N)NC1=O | 8.79
11 | CC(C)C[C@@H]1NC(=O)[C@H](CCC(N)=O)NC(=O)[C@H](CCCNC(=N)N)NC(=O)[C@@H]2CSCCC(=O)N3CN(CN(C3)C(=O)CCSC[C@H](NC(=O)[C@@H](N)CCCNC(=N)N)C(=O)N[C@@H](Cc3ccccc3)C(=O)N[C@@H](CCCNC(=N)N)C(=O)N[C@@H](CC(C)(C)C)C(=O)N3CCC[C@H]3C(=O)N2)C(=O)CCSC[C@@H](C(=O)N[C@@H](CCCNC(=N)N)C(=O)N[C@@H](Cc2c[nH]c3ccccc23)C(=O)O)NC(=O)[C@H](CCCNC(=N)N)NC1=O (H-RCFR[tBuAla]PCRQLRCRW-OH; linker 2-7-12 via TATA) | < 5.52
12 | CCC[C@@H]1NC(=O)[C@H](CCCNC(=N)N)NC(=O)[C@H](Cc2ccccc2)NC(=O)[C@@H](NC(=O)[C@@H](N)CCCNC(=N)N)CSCCC(=O)N2CN3CN(C2)C(=O)CCSC[C@H](NC(=O)[C@@H]2CCCN2C1=O)C(=O)N[C@@H](CCCNC(=N)N)C(=O)N[C@@H](CCC(N)=O)C(=O)N[C@@H](CC(C)C)C(=O)N[C@@H](CCCNC(=N)N)C(=O)N[C@H](C(=O)N[C@@H](CCCNC(=N)N)C(=O)N[C@@H](Cc1c[nH]c2ccccc12)C(=O)O)CSCCC3=O (H-RCFR[Nva]PCRQLRCRW-OH; linker 2-7-12 via TATA) | 6.66
13 | Cc1ccccc1C[C@@H]1NC(=O)[C@@H](NC(=O)[C@@H](N)CCCNC(=N)N)CSCCC(=O)N2CN3CN(C2)C(=O)CCSC[C@H](NC(=O)[C@@H]2CCCN2C(=O)[C@H](CC(C)C)NC(=O)[C@H](CCCNC(=N)N)NC1=O)C(=O)N[C@@H](CCCNC(=N)N)C(=O)N[C@@H](CCC(N)=O)C(=O)N[C@@H](CC(C)C)C(=O)N[C@@H](CCCNC(=N)N)C(=O)N[C@H](C(=O)N[C@@H](CCCNC(=N)N)C(=O)N[C@@H](Cc1c[nH]c2ccccc12)C(=O)O)CSCCC3=O | 7.40
14 | CC[C@H](C)[C@@H]1NC(=O)[C@H](CCCNC(=N)N)NC(=O)[C@H](Cc2ccccc2)NC(=O)[C@@H](NC(=O)[C@@H](N)CCCNC(=N)N)CSCCC(=O)N2CN3CN(C2)C(=O)CCSC[C@H](NC(=O)[C@@H]2CCCN2C1=O)C(=O)N[C@@H](CCCNC(=N)N)C(=O)N[C@@H](CCC(N)=O)C(=O)N[C@@H](CC(C)C)C(=O)N[C@@H](CCCNC(=N)N)C(=O)N[C@H](C(=O)N[C@@H](CCCNC(=N)N)C(=O)N[C@@H](Cc1c[nH]c2ccccc12)C(=O)O)CSCCC3=O (H-RCFRIPCRQLRCRW-OH; linker 2-7-12 via TATA) | 6.05
15 | CC(C)C[C@@H]1NC(=O)[C@H](CCC(N)=O)NC(=O)[C@H](CCCNC(=N)N)NC(=O)[C@@H]2CSCCC(=O)N3CN(CN(C3)C(=O)CCSC[C@H](NC(=O)[C@@H](N)CCCNC(=N)N)C(=O)N[C@@H](Cc3cccc(F)c3)C(=O)N[C@@H](CCCNC(=N)N)C(=O)N[C@@H](CC(C)C)C(=O)N3CCC[C@H]3C(=O)N2)C(=O)CCSC[C@@H](C(=O)N[C@@H](CCCNC(=N)N)C(=O)N[C@@H](Cc2c[nH]c3ccccc23)C(=O)O)NC(=O)[C@H](CCCNC(=N)N)NC1=O | 8.35
16 | CC(C)C[C@@H]1NC(=O)[C@H](CCC(N)=O)NC(=O)[C@H](CCCNC(=N)N)NC(=O)[C@@H]2CSCCC(=O)N3CN(CN(C3)C(=O)CCSC[C@H](NC(=O)[C@@H](N)CCCNC(=N)N)C(=O)N[C@@H](Cc3csc4ccccc34)C(=O)N[C@@H](CCCNC(=N)N)C(=O)N[C@@H](CC(C)C)C(=O)N3CCC[C@H]3C(=O)N2)C(=O)CCSC[C@@H](C(=O)N[C@@H](CCCNC(=N)N)C(=O)N[C@@H](Cc2c[nH]c3ccccc23)C(=O)O)NC(=O)[C@H](CCCNC(=N)N)NC1=O | 8.17
